# Experimental data: publication PMC12471852, “Design and Synthesis of Marine-Inspired Itampolin A Derivatives to Overcome Chemoresistance in NSCLC via Cholesterol Homeostasis Modulation” (Marine Drugs, 2025)
# “And” between values parts separate entries of the source, which are not always exact repeats. Equal entries are not always repeated. “Also recorded” adds a separate entry of the source.
# Legend:
# p38α = p38α (Homo sapiens, UniProt Q16539); assay: ADP-Glo Kinase Assay, p38α MAP kinase inhibition; assay type: biochemical; settings: read-out: p38α MAP kinase inhibitory activity IC50
# Chain of p38α (Q16539 whole entry): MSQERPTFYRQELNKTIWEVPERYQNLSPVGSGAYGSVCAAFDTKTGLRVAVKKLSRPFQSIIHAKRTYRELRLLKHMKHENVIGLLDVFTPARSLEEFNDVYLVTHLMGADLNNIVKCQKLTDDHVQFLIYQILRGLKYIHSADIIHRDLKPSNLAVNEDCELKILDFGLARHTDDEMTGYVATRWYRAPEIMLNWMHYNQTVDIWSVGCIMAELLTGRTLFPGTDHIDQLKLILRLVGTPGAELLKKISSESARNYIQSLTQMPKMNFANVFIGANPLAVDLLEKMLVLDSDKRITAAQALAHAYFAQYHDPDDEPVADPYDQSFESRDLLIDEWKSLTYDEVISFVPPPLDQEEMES
# Protocol: The capacity of brominated tyrosine derivatives to inhibit p38α activity was evaluated using the ADP-Glo Kinase Assay.
# BEAS-2B cells = assay: MTT cytotoxicity assay, normal bronchial epithelial BEAS-2B cells; assay type: cell-based, human
# Protocol: The cytotoxicity of compound 4l on normal human bronchial epithelial cells (BEAS-2B) was also evaluated using the MTT assay. Cells treated with 0.1% DMSO served as the vehicle control.
# The human normal lung epithelial cell line BEAS-2B, non-small cell lung carcinoma (NSCLC) cell line PC9, and gefitinib-resistant PC9/GR cell line were purchased from Procell Life Science & Technology Co., Ltd. (Wuhan, China). All cell lines were maintained in RPMI-1640 medium (BI, Beit Haemek, Mateh Asher, Israel) supplemented with 10% fetal bovine serum (FBS, Gibco, Thermo Fisher Scientific, Waltham, MA, USA) and 1% penicillin–streptomycin–amphotericin B sterile solution (Solarbio, Beijing, China). Cells were cultured at 37 °C in a humidified incubator with 5% CO2. For subculturing, cells were harvested using trypsin-EDTA solution upon reaching 70–80% confluence and resuspended at appropriate densities for subsequent experiments.
# MTT: Cells (5 × 10^4/mL) were treated with 4l (25–100 μM, 24–48 h), incubated with MTT (10 μL/well, 4–6 h), and dissolved in DMSO. Absorbance (490 nm) was measured to assess viability.
# PC9/GR cells [1] = assay: Clonogenic survival / colony formation assay; assay type: cell-based, human; settings: 24 h pretreatment, 14 days culture, p < 0.05 vs untreated controls
# Protocol: (§1) To evaluate the tumor-selective activity of compounds 4l and 4m, dose–response studies were performed on wild-type PC9 and gefitinib-resistant PC9/GR cell lines. […] Subtoxic concentrations of 25, 50, and 75 μM were employed to ensure specificity for drug-resistant phenotypes while preserving normal cell viability. […] To assess long-term proliferative potential, clonogenic survival assays were performed. Cells pretreated with 4l (24 h) were trypsinized to generate single-cell suspensions, plated at 300 cells/well, and cultured for 14 days. […] Cell migration ability was evaluated by the scratch healing assay. […] To evaluate the pro-apoptotic efficacy of 4l, we employed a dual-staining approach using Annexin V-FITC and propidium iodide (PI) for quadrant-specific quantification of programmed cell death. Annexin V binds externalized phosphatidylserine (PS), a hallmark of early apoptosis, while PI permeabilization discriminates late-stage apoptotic or necrotic cells.
# Clonogenic Survival: Single-cell suspensions (300 cells/well) were cultured for 14 days. Colonies (>50 cells) were fixed (4% PFA), stained with crystal violet, and counted.
# PC9/GR cells were seeded into 6-well plates at a density of […] and cultured in a 37 °C incubator for 2 weeks. The culture medium was then discarded, and the cells were washed with PBS. […] Finally, the number of cell colonies was counted.
# PC9/GR cells [2] = assay: Annexin V-FITC/PI apoptosis, flow cytometry; assay type: cell-based, human; settings: 24 h, vehicle control 5.2%
# Protocol: as §1
# Annexin V/PI Apoptosis: 4l treated cells were stained with Annexin VFITC/PI (15 min, dark), analyzed by flow cytometry (Q2/Q3: late/early apoptosis).
# TM7SF2 [3] = assay: Transcriptome sequencing, differentially expressed genes; assay type: cell-based, human; settings: 4l-treated vs untreated PC9/GR
# From the text: (§2) By comparing PC9/GR treated with the small molecule compound 4l against untreated PC9/GR controls, we identified significant differentially expressed genes (DEGs). […] The results of the GO enrichment analysis further emphasized the significant impact of the small molecule compound 4l on steroid biosynthesis and metabolism in lung cancer cells, with the top five pathways being steroid biosynthesis, steroid metabolism, the metabolism of hydroxylated compounds, steroid biosynthesis, and cholesterol biosynthesis (Figure 4C). […] TM7SF2 has been identified as a critical regulator of cholesterol biosynthesis and steroid metabolism in lung cancer cells, a finding central to overcoming chemoresistance in NSCLC [28]. Thus, we selected TM7SF2 as the target gene for further experiments and investigated the protein expression of TM7SF2 in 4l-treated PC9/GR cells using immunoblotting.
# TM7SF2 [4] = assay: Western blot / immunofluorescence of TM7SF2 protein in PC9/GR cells; assay type: cell-based, human; settings: 4l-treated vs untreated PC9/GR, immunoblotting
# From the text: as §2
# Western blot: Proteins extracted with RIPA buffer were quantified (BCA), separated by SDS-PAGE, transferred to PVDF membranes, and probed with antibodies. Signals were detected by ECL.
# [5] = tested on: C/EBPβ binding to the TM7SF2 promoter region; assay: ChIP-qPCR of C/EBPβ binding to the TM7SF2 promoter; assay type: cell-based, human; settings: Anti-C/EBPβ group of PC9/GR cells treated with 4l
# From the text: We obtained the gene promoter sequence of TM7SF2 from the NCBI database and utilized online databases JASPAR, UCSC, and hTFtarget to predict potential transcription factors for TM7SF2 (Table S2). […] Some studies indicate that p38 can induce C/EBPβ expression through the activation of p38 MAPK, JNK, or ERK in different experimental environments. We conducted Western blot experiments to detect changes in C/EBPβ expression and p38 protein activation and used ChIP and qPCR to determine whether C/EBPβ can target the TM7SF2 promoter region. […] Furthermore, the strength of this direct binding may be related to intracellular cholesterol levels.
# ChIP: 4l treated cells were crosslinked (1% formaldehyde, 20 min), lysed, and sonicated. Chromatin was immunoprecipitated with target antibodies, washed, and eluted. DNA was purified for qPCR.
# qPCR: SYBR Green-based reactions (20 μL) included primers (0.4 μM each) and template DNA.
smiles,measurement,setting,value
"O=C(NCCc1cc(Br)c(O)c(Br)c1)Nc1ccc(F)cc1 [4l, 1-(3,5-dibromo-4-hydroxyphenethyl)-3-(4-fluorophenyl)urea]",IC50,p38α,9.7 ± 1.4 nM
same,"MTT, normal cells, value relative to control (=100), single replicate","BEAS-2B cells; 25 (μM), 24 h",88.6 and 95.3 and 97.6 and 88.2
same,"MTT, normal cells, value relative to control (=100), single replicate","BEAS-2B cells; 25 (μM), 48 h",90.6 and 83.5 and 89.7 and 76.4
same,anti-proliferative effect on BEAS-2B cells,"BEAS-2B cells; 25 to 100 μM, 24 h",no significant anti-proliferative effects
same,"MTT, normal cells, value relative to control (=100), single replicate","BEAS-2B cells; 50 (μM), 24 h",80.6 and 83.5 and 79.7 and 76.4
same,"MTT, normal cells, value relative to control (=100), single replicate","BEAS-2B cells; 50 (μM), 48 h",79.8 and 82.9 and 80.5 and 70.5
same,"MTT, normal cells, value relative to control (=100), single replicate","BEAS-2B cells; 75 (μM), 24 h",79.4 and 80.4 and 76.3 and 78.9
same,"MTT, normal cells, value relative to control (=100), single replicate","BEAS-2B cells; 75 (μM), 48 h",75.2 and 77.7 and 73.1 and 76.4
same,"MTT, normal cells, value relative to control (=100), single replicate","BEAS-2B cells; 100 (μM), 24 h",80.2 and 71.5 and 74.6 and 73.5
same,"MTT, normal cells, value relative to control (=100), single replicate","BEAS-2B cells; 100 (μM), 48 h",77.3 and 80.6 and 71 and 69.3
same,cytotoxicity in normal lung cells,BEAS-2B cells; doses ≤ 100 μM,negligible cytotoxicity; also recorded: minimal cytotoxicity
same,cellular proliferation efficiency of BEAS-2B cells,"BEAS-2B cells; prolonged treatment, 48 h",remained comparable to untreated controls
same,colony formation,PC9/GR cells [1],statistically significant inhibition
same,total apoptosis,PC9/GR cells [2]; 25 μM,9.1%
same,total apoptosis,PC9/GR cells [2]; 50 μM,13.13%
same,total apoptosis,PC9/GR cells [2]; 75 μM,19.53%
same,TM7SF2 gene expression (differentially expressed genes),TM7SF2 [3],significantly downregulated
same,TM7SF2 protein expression level,TM7SF2 [4],significantly reduced
same,C/EBPβ binding to TM7SF2 promoter (specific amplification bands),[5],did not show specific amplification bands
